Experimental data reported in patent publication US9908859B2, “Lysine demethylase inhibitors for myeloproliferative disorders” (Oryzon Genomics S.A., priority 2011, dated 2018).

How the values were obtained:
[1] = system: platelets; assay: Platelet levels in mice after 5 consecutive once daily injections; assay type: in vivo, mice (Hsd:Athymic Nude-Foxn1nu); settings: 60 min after last dose
Method: On the fifth day, 60 min after the administration, mice were sacrificed and blood was collected in sodium citrate-containing tubes for haemogram analysis. Platelet levels were determined and referred as % of platelets compared with the levels found in mice treated with vehicle. Platelet levels were determined in a standard hematology analyzer (Abacus Junior Vet, from Diatron) following the manufacturer's instructions.
20% 2-hydroxypropyl-β-cyclodextrin in H2O was used as a vehicle. When necessary, 10% DMSO was also added in the vehicle. Each day, compounds were administered in a single intraperitoneal injection with administration volumes of 15 ml/kg.
Mice strain was Hsd:Athymic Nude-Foxn1nu. Animals were maintained in air and temperature controlled cages with regular supply of water and food.

[2] = target: T1, Human recombinant monoamine oxidase MAO-A (Homo sapiens, UniProt P21397); assay: MAO-A inhibition, kynuramine fluorescence assay; assay type: biochemical
T1 construct: purchased Sigma Aldrich
T1 sequence (P21397 1-527): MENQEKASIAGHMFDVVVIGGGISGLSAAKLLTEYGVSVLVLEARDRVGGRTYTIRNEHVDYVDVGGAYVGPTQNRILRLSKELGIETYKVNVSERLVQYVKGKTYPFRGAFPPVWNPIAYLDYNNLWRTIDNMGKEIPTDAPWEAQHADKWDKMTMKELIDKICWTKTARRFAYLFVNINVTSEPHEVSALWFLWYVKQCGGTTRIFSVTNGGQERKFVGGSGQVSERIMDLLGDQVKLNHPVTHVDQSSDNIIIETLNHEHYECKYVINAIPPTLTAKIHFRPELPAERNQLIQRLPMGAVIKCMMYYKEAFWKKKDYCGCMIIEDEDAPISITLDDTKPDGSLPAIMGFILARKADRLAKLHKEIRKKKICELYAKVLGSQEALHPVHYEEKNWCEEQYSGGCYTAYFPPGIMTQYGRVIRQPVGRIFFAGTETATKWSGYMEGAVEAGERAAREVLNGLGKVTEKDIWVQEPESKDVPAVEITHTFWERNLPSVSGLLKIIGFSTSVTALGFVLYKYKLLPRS
From the text: (§1) Human recombinant monoamine oxidase proteins MAO-A and MAO-B were purchased from Sigma Aldrich. MAOs catalyze the oxidative deamination of primary, secondary and tertiary amines. In order to monitor MAO enzymatic activities and/or their inhibition rate by inhibitor(s) of interest, a fluorescent-based (inhibitor)-screening assay was set up. 3-(2-Aminophenyl)-3-oxopropanamine (kynuramine dihydrobromide, Sigma Aldrich), a non fluorescent compound was chosen as a substrate. Kynuramine is a non-specific substrate for both MAOs activities. While undergoing oxidative deamination by MAO activities, kynuramine is converted into 4-hydroxyquinoline (4-HQ), a resulting fluorescent product.
(§2) The monoamine oxidase activity was estimated by measuring the conversion of kynuramine into 4-hydroxyquinoline. […]
(§3) After leaving the enzyme(s) interacting with the inhibitor, 60 to 90 μM of kynuramine was added to each reaction for MAO-B and MAO-A assay respectively, and the reaction was left for 1 hour at 37° C. in the dark. […] The conversion of kynuramine to 4-hydroxyquinoline, was monitored by fluorescence (excitation at 320 nm, emission at 360 nm) using a microplate reader (Infinite 200, Tecan). Arbitrary units were used to measure levels of fluorescence produced in the absence and/or in the presence of inhibitor.
(§4) The Ki (IC50) of each inhibitor was determined at Vmax/2.

[3] = system: H3K4 methylation in SH-SY5Y cells; assay: Western blot for dimethylated H3-K4 in SH-SY5Y cells; assay type: cell-based
From the text: B-actin was used as a loading control.

[4] = target: LSD1 (Homo sapiens, UniProt O60341); assay: LSD1 demethylase inhibition, Amplex Red peroxide/peroxidase-coupled assay with di-methylated H3-K4 peptide; assay type: biochemical; set-up: purchased BPS Bioscience Inc
From the text: Compounds for use in the methods of the invention can be identified by their ability to inhibit LSD1. The ability of the compounds of the invention to inhibit LSD1 can be tested as follows. Human recombinant LSD1 protein was purchased from BPS Bioscience Inc. In order to monitor LSD1 enzymatic activity and/or its inhibition rate by our inhibitor(s) of interest, di-methylated H3-K4 peptide (Millipore) was chosen as a substrate. The demethylase activity was estimated, under aerobic conditions, by measuring the release of H2O2 produced during the catalytic process, using the Amplex® Red peroxide/peroxidase-coupled assay kit (Invitrogen).
Within the experiment, each concentration of inhibitor was tested in triplicate. […] The enzymatic reactions were set up in a 50 mM sodium phosphate, pH 7.4 buffer. […] The conversion of the Amplex® Red reagent to resorufin due to the presence of H2O2 in the assay, was monitored by fluorescence (excitation at 540 nm, emission at 590 nm) using a microplate reader (Infinite 200, Tecan). […]
The maximum demethylase activity of LSD1 was obtained in the absence of inhibitor and corrected for background fluorescence in the absence of LSD1. […]

[5] = target: T2, Human recombinant monoamine oxidase MAO-B (Homo sapiens, UniProt P27338); assay: MAO-B inhibition, kynuramine fluorescence assay; assay type: biochemical
T2 construct: purchased Sigma Aldrich
T2 sequence (P27338 1-520): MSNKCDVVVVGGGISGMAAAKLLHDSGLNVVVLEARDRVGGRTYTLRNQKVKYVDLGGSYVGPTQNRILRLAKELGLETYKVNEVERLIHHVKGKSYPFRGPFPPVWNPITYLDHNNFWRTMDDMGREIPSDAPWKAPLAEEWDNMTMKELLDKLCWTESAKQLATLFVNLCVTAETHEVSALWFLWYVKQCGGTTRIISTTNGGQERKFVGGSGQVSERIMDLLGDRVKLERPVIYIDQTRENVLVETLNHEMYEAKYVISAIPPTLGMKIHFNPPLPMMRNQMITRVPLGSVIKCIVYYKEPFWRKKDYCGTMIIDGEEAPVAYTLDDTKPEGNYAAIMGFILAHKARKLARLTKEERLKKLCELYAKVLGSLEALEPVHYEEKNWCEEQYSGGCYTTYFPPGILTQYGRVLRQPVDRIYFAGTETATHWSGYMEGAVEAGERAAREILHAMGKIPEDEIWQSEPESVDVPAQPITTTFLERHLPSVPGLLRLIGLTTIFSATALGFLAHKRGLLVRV
From the text: as §1, §2, §3, §4

[6] = 10 mg/kg i.p. once daily x 5 days
[7] = 20 mg/kg i.p. once daily x 5 days
[8] = 40 mg/kg i.p. once daily x 5 days

Row | Compound | % platelet vs. Vehicle [1, 6] | IC50 [2] | % platelet vs. Vehicle [1, 7] | % platelet vs. Vehicle [1, 8] | IC50 [4] | further results
1 | CN1CCN(C(=O)CN[C@H]2C[C@@H]2c2ccc(OCc3ccccc3)cc2)CC1 (racemic) [Compound 3] | 5% |  |  |  |  | % platelet vs. Vehicle ([1]; 1 mg/kg i.p. once daily x 5 days): 46%; % platelet vs. Vehicle ([1]; 3 mg/kg i.p. once daily x 5 days): 16%
2 | NC(=O)CN[C@@H]1C[C@H]1c1ccc(OCc2ccccc2)cc1 (relative stereo) [Compound 1] | 66% | > 2000 nM | 55% | 34% | < 200 nM | H3K4 methylation (western blot) ([3]; SH-SY5Y cells grown with compound for 1, 2 and 3 days, Dual-1 at 100 μM (FIG. 3)): increases H3K4 methylation in cells in a time dependent manner; potency at increasing global dimethylated H3K4 levels as compared to tranylcypromine ([3]; SH-SY5Y cells, 1, 2 and 3 days): ≥ 10 fold; % platelet vs. Vehicle ([1]; 5 mg/kg i.p. once daily x 5 days): 91%
3 | N[C@H]1CCN(CCN[C@H]2C[C@@H]2c2ccc(-c3cccc(C(F)(F)F)c3)cc2)C1 [Compound 5] |  | > 500 nM |  |  | < 200 nM | IC50 [5]: > 1000 nM
4 | N[C@H]1CC1c1ccc(-c2cccc(O)c2)cc1 (stereo partly shown) [Compound 6] |  |  |  |  |  | % platelet vs. Vehicle ([1]; 17 mg/kg i.p. once daily x 5 days): 56%; % platelet vs. Vehicle ([1]; 34 mg/kg i.p. once daily x 5 days): 46%; % platelet vs. Vehicle ([1]; 52 mg/kg i.p. once daily x 5 days): 63%
5 | CS(=O)(=O)Nc1cccc(-c2ccc(C3C[C@@H]3N)cn2)c1 (stereo partly shown) [Compound 7] |  |  | 68% | 44% |  | 
